{"source": "paper PMC8143083", "about": "“Effective Activation of BKCa Channels by QO-40 (5-(Chloromethyl)-3-(Naphthalen-1-yl)-2-(Trifluoromethyl)Pyrazolo [1,5-a]pyrimidin-7(4H)-one), Known to Be an Opener of KCNQ2/Q3 Channels” (Pharmaceuticals, 2021)", "target": "T1, α-hSlo (BKCa channel α-subunit) (Homo sapiens, UniProt Q12791)", "T1 construct": "gene KCNMA1; α-hSlo expressed in HEK293T cells", "T1 sequence (Q12791 whole entry)": "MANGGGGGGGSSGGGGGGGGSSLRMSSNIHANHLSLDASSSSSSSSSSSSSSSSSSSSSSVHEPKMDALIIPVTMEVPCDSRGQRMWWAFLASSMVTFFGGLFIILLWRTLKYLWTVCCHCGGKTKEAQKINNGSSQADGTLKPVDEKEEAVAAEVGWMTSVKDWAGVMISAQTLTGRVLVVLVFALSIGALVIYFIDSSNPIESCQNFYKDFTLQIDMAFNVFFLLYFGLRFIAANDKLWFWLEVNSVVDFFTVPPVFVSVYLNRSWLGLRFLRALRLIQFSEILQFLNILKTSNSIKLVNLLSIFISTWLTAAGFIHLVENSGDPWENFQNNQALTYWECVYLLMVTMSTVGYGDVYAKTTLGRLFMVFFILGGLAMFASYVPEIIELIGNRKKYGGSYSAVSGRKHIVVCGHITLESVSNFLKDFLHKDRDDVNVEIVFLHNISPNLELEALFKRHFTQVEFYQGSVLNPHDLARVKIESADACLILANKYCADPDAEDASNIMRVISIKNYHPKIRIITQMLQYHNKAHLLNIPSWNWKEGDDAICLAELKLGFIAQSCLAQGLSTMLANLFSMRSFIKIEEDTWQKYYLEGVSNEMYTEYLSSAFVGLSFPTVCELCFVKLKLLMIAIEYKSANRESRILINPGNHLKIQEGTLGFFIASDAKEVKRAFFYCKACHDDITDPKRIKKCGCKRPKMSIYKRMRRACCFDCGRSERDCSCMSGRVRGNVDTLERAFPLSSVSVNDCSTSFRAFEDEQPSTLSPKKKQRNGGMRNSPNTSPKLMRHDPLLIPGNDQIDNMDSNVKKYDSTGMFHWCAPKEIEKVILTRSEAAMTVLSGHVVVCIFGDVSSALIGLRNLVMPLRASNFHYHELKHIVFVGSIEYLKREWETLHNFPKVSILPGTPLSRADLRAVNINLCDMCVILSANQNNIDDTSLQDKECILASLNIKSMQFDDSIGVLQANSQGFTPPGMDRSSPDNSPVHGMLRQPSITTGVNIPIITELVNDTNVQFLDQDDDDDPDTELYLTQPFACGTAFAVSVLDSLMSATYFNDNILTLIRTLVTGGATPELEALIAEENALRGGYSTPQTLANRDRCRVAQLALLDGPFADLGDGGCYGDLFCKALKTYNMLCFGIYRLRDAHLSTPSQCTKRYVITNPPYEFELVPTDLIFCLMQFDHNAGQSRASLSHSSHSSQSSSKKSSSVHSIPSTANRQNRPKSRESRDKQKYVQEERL", "experiment": "patch clamp of α-hSlo-expressing HEK293T cells (Figure S1)", "format": "cell-based"}
{"smiles": "O=c1cc(CCl)nc2c(-c3cccc4ccccc34)c(C(F)(F)F)[nH]n12", "note": "[QO-40, 5-(chloromethyl)-3-(naphthalen-1-yl)-2-(trifluoromethyl)pyrazolo[1,5-a]pyrimidin-7(4H)-one]", "values": [{"measurement": "patch clamp of α-hSlo-expressing HEK293T cells (Figure S1)", "result": "In HEK293T cells expressing α-hSlo, QO-40 stimulated BKCa channel activity."}]}
